Assay results taken from ChEMBL document CHEMBL3351722, “Optimized inhibitors of soluble epoxide hydrolase improve in vitro target residence time and in vivo efficacy” (J Med Chem, 2014).

What was measured:
[1] = Lipophilicity, log P of the compound by shake-flask method; type: physicochemical; details: octanol/water
[2] = in vivo; details: Swiss Webster, mouse, po, 0.3 mg/kg
[3] = (§1) Cmax in Swiss Webster mouse at 0.3 mg/kg, po administered as cassette dosing; type: ADME, organism-based; set-up: dose 0.3 mg/kg, route oral; details: Swiss Webster, in vivo
[4] = (§2) Half life in Swiss Webster mouse at 0.3 mg/kg, po administered as cassette dosing; type: ADME, organism-based; set-up: dose 0.3 mg/kg, route oral; details: Swiss Webster, in vivo
[5] = (§3) AUC in Swiss Webster mouse at 0.3 mg/kg, po administered as cassette dosing; type: ADME, organism-based, Plasma; set-up: dose 0.3 mg/kg, route oral; details: Swiss Webster, plasma
[6] = tested on: Mus musculus; assay: as §2; type: ADME, organism-based; set-up: dose 0.3 mg/kg, route oral; details: in vivo
[7] = tested on: Mus musculus; assay: as §3; type: ADME, organism-based, Plasma; set-up: dose 0.3 mg/kg, route oral; details: in vivo
[8] = in vivo; details: Sprague-Dawley, rat, po, 0.3 mg/kg
[9] = AUC in Sprague-Dawley rat at 0.3 mg/kg, po administered as cassette dosing; type: ADME, organism-based; set-up: dose 0.3 mg/kg, route oral; details: plasma
[10] = Half life in Sprague-Dawley rat at 0.3 mg/kg, po administered as cassette dosing; type: ADME, organism-based; set-up: dose 0.3 mg/kg, route oral; details: in vivo
[11] = Cmax in Sprague-Dawley rat at 0.3 mg/kg, po administered as cassette dosing; type: ADME, organism-based; set-up: dose 0.3 mg/kg, route oral; details: in vivo
[12] = tested on: Mus musculus; assay: as §1; type: ADME, organism-based; set-up: dose 0.3 mg/kg, route oral; details: in vivo

CC(C)CC(=O)N1CCC(NC(=O)Nc2ccc(C(F)(F)F)cc2)CC1
logP [1]: 3.86

CCCCS(=O)(=O)N1CCC(NC(=O)Nc2ccc(C(F)(F)F)cc2)CC1
Tmax [2]: 1 h | Cmax [3]: 30 nM | logP [1]: 3.95 | half-life [4]: 7.4 h | AUC [5]: 0.245 µM·h

CCC(C)C(=O)N1CCC(NC(=O)NC2CCCCCC2)CC1 (stereo not drawn)
Tmax [2]: 0.5 h | Cmax [3]: 3 nM | half-life [4]: 8.4 h | AUC [5]: 0.075 µM·h

CCC(C)C(=O)N1CCC(NC(=O)Nc2ccc(C(F)(C(F)(F)F)C(F)(F)F)cc2)CC1 (stereo not drawn)
Tmax [2]: 2.5 h | Cmax [3]: 135 nM | logP [1]: 4.96 | half-life [4]: 4.5 h | AUC [5]: 1.6 µM·h

CCS(=O)(=O)N1CCC(NC(=O)Nc2ccc(C(F)(F)F)cc2)CC1
logP [1]: 3.08

O=C(Nc1ccc(C(F)(F)F)cc1)NC1CCN(C(=O)C2CC2)CC1
Tmax [2]: 6 h | Cmax [3]: 960 nM | logP [1]: 3.18 | half-life [4]: 17 h | AUC [5]: 24.6 µM·h

CCC(C)C(=O)N1CCC(NC(=O)N[C@H]2CC[C@H](CC)CC2)CC1 (stereo partly drawn)
Cmax [3]: 5 nM | t1/2 [6]: 12 h | AUC [7]: 0.037 µM·h

CC(C)S(=O)(=O)N1CCC(NC(=O)Nc2ccc(C(F)(F)F)cc2)CC1
logP [1]: 3.39

O=C(Nc1ccc(C(F)(F)F)cc1)NC1CCN(C(=O)CC(F)(F)F)CC1
Tmax [2]: 8 h | Cmax [3]: 330 nM | logP [1]: 3.99 | half-life [4]: 15.4 h | AUC [5]: 8.85 µM·h

O=C(Nc1ccc(C(F)(F)F)cc1)NC1CCN(S(=O)(=O)C2CC2)CC1
logP [1]: 3.39

CCC(C)C(=O)N1CCC(NC(=O)Nc2ccc(C(C)(C)C)cc2)CC1 (stereo not drawn)
logP [1]: 5.12

O=C(Nc1ccc(C(F)(F)F)cc1)NC1CCN(S(=O)(=O)CC(F)(F)F)CC1
Tmax [2]: 8 h | Cmax [3]: 100 nM | logP [1]: 3.42 | half-life [4]: 25 h | AUC [5]: 4.27 µM·h

CCCS(=O)(=O)N1CCC(NC(=O)Nc2ccc(C(F)(F)F)cc2)CC1
logP [1]: 3.39

CC[C@H](C)C(=O)N1CCC(NC(=O)Nc2ccc(OC(F)(F)F)cc2)CC1
Tmax [2]: 4 h | Tmax [8]: 4 h | Cmax [3]: 195 nM | AUC [9]: 2.59 µM·h | half-life [10]: 4.2 h | logP [1]: 3.97 | Cmax [11]: 297 nM | half-life [4]: 7.7 h | AUC [5]: 2.53 µM·h

CCC(C)C(=O)N1CCC(NC(=O)Nc2ccc(C(C)C)cc2)CC1 (stereo not drawn)
Tmax [2]: 0.5 h | Cmax [3]: 90 nM | logP [1]: 4.21 | AUC [5]: 0.2 µM·h

CCC(C)C(=O)N1CCC(NC(=O)Nc2ccc(OC(F)(F)F)cc2)CC1 (stereo not drawn)
Tmax [2]: 2 h | Cmax [3]: 235 nM | logP [1]: 3.98 | half-life [4]: 6 h | AUC [5]: 3.3 µM·h

CS(=O)(=O)N1CCC(NC(=O)Nc2ccc(C(F)(F)F)cc2)CC1
Tmax [2]: 8 h | Cmax [3]: 130 nM | logP [1]: 2.94 | half-life [4]: 22 h | AUC [5]: 4.67 µM·h

CCC(C)C(=O)N1CCC(NC(=O)Nc2ccc(C(F)(F)F)cc2)CC1 (stereo not drawn)
Tmax [2]: 0.5 h | Cmax [3]: 320 nM | logP [1]: 3.83 | half-life [4]: 6 h | AUC [5]: 3.29 µM·h

CC(=O)N1CCC(NC(=O)Nc2ccc(C(F)(F)F)cc2)CC1
logP [1]: 2.74

O=C(Nc1ccc(C(F)(C(F)(F)F)C(F)(F)F)cc1)NC1CCN(C(=O)CC(F)(F)F)CC1
Tmax [2]: 8 h | Cmax [3]: 365 nM | logP [1]: 4.89 | half-life [4]: 18.9 h | AUC [5]: 9.6 µM·h

CC(=O)N1CCC(NC(=O)NC23CC4CC(CC(C4)C2)C3)CC1 [AR9281]
Cmax [3]: 30 nM | AUC [5]: 0.183 µM·h

CC[C@H](C)C(=O)N1CCC(NC(=O)Nc2ccc(C(F)(F)F)cc2)CC1
Tmax [2]: 1 h | Tmax [8]: 1 h | Cmax [3]: 435 nM | AUC [9]: 5.72 µM·h | half-life [10]: 4.9 h | logP [1]: 3.84 | Cmax [11]: 790 nM | half-life [4]: 5 h | AUC [5]: 4.94 µM·h

CCCCS(=O)(=O)N1CCC(NC(=O)Nc2ccc(OC(F)(F)F)cc2)CC1
Tmax [2]: 1.2 h | Cmax [3]: 65 nM | logP [1]: 4.13 | half-life [4]: 2 h | AUC [5]: 0.22 µM·h

CC(C)C(=O)N1CCC(NC(=O)Nc2ccc(OC(F)(F)F)cc2)CC1
Tmax [2]: 5 h | Tmax [8]: 1 h | Cmax [3]: 900 nM | AUC [9]: 12 µM·h | half-life [10]: 3.5 h | Cmax [11]: 890 nM | half-life [4]: 9 h | AUC [5]: 19.5 µM·h

CS(=O)(=O)N1CCC(NC(=O)Nc2ccc(OC(F)(F)F)cc2)CC1
Cmax [12]: 370 nM | half-life [4]: 15 h | AUC [5]: 5.3 µM·h

O=C(Nc1ccc(C(F)(F)F)cc1)NC1CCN(C(=O)CCC(F)(F)F)CC1
logP [1]: 3.66

CC(C)C(=O)N1CCC(NC(=O)Nc2ccc(C(F)(F)F)cc2)CC1
Tmax [2]: 4 h | Tmax [8]: 4 h | Cmax [3]: 1160 nM | AUC [9]: 7.3 µM·h | half-life [10]: 5.4 h | Cmax [11]: 510 nM | half-life [4]: 6 h | AUC [5]: 19.7 µM·h
